The values that follow come from patent US10377753B2, “Substituted 4-azaindoles and their use as GluN2B receptor modulators” (Janssen Pharmaceutica NV, priority 2015, dated 2019).

Molecules are shown by their SMILES. Where a name gives a salt, the structure may show the parent alone.

cloned human NR1/NR2B ion channels, sequence (Q13224 27-1484, other chains not shown): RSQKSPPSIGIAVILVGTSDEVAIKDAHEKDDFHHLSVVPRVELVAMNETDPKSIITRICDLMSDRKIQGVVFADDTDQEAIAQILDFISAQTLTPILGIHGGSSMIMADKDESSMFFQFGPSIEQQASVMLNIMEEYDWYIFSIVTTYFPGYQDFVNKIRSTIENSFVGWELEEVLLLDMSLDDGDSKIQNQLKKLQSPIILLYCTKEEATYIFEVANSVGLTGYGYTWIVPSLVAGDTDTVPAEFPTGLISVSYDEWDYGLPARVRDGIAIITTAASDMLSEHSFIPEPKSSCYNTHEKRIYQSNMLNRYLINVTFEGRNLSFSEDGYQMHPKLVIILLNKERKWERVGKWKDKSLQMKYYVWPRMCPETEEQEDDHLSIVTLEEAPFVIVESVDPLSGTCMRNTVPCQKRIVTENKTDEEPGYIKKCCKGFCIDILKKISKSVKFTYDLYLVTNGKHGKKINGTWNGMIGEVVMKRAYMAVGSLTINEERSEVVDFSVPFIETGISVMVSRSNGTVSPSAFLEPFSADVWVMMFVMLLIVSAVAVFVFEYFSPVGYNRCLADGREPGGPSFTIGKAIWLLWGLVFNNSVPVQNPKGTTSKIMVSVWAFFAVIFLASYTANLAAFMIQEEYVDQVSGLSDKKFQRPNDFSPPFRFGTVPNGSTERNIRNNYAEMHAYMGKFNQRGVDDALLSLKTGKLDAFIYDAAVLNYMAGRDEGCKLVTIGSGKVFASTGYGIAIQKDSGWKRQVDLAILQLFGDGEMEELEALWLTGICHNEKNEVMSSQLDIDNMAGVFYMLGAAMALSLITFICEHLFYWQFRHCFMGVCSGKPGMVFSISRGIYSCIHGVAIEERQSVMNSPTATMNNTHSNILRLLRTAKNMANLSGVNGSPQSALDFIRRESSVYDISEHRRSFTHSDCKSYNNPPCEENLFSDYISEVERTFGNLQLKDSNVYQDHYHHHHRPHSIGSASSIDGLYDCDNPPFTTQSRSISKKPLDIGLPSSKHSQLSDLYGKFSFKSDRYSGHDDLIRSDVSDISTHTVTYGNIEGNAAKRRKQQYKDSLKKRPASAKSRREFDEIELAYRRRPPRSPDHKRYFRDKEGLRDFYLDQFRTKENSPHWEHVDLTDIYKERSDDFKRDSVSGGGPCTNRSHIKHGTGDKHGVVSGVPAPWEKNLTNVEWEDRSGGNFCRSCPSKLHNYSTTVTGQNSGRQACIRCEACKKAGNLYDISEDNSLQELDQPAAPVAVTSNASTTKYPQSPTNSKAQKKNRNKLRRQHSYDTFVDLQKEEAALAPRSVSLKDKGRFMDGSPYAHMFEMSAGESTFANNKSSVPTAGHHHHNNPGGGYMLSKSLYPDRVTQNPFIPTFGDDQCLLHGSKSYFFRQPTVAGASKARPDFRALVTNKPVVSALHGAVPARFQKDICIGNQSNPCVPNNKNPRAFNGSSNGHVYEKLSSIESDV

The target in this experiment is cloned human NR1/NR2B ion channels (Homo sapiens (Human), UniProt Q05586+Q13224). As to the kind of experiment: HNR2BC: effects of test articles on cloned human NR1/NR2B ion channels expressed in mammalian cells (FLIPR calcium flux). The format is cell-based. The settings on record: cloned human NR1/NR2B, Table 5. In short, it runs like this:
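In a stable Tet-On-induced cell line expressing human GluN1/GluN2B, Calcium 5-loaded cells were preincubated 5 min with compound, then stimulated 5 min with glutamate at ~EC80 plus 10 μM glycine, in pH 7.4 HEPES buffer. FLIPR calcium fluorescence was normalized to control wells.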
In general terms: Calcium assays in cells follow changes in intracellular calcium, usually with a dye or a luminescent sensor.
One may read the IC50 as the point on the concentration scale where inhibition reaches its midpoint. On to `O=C(Cn1cc(Cl)c2ncc(-c3ccc(F)c(F)c3F)cc21)N1CCC1` [Example 312, 1-(Azetidin-1-yl)-2-[3-chloro-6-(2,3,4-trifluorophenyl)pyrrolo[3,2-b]pyridin-1-yl]ethanone], for which the IC50 is 158 nM.

`Cc1cc(-c2cnc3c(F)cn(CC(=O)N4CCCC4)c3c2)ccc1F` [Example 313, 2-[3-Fluoro-6-(4-fluoro-3-methyl-phenyl)pyrrolo[3,2-b]pyridin-1-yl]-1-pyrrolidin-1-yl-ethanone]: the half-inhibitory concentration (IC50) was 20 nM.

With `O=C(Cn1cc(F)c2ncc(-c3ccc(F)cc3)cc21)N1CCCC1` [Example 314, 2-[3-Fluoro-6-(4-fluorophenyl)pyrrolo[3,2-b]pyridin-1-yl]-1-pyrrolidin-1-yl-ethanone], the IC50 was 63.1 nM.

As for `O=C(Cn1cc(F)c2ncc(-c3cc(F)c(F)c(F)c3)cc21)N1CCCC1` [Example 315, 2-[3-Fluoro-6-(3,4,5-trifluorophenyl)pyrrolo[3,2-b]pyridin-1-yl]-1-pyrrolidin-1-yl-ethanone], the IC50 is 79.4 nM.

Consider `Cc1cc(-c2cnc3c(F)cn(CC(=O)C4CC4)c3c2)ccc1F` [Example 316, 1-Cyclopropyl-2-[3-fluoro-6-(4-fluoro-3-methyl-phenyl)pyrrolo[3,2-b]pyridin-1-yl]ethanone], for which the IC50 was 39.8 nM.

As to `Cc1csc(-c2cnc3c(F)cn(CC(=O)C4CC4)c3c2)c1` [Example 317, 1-Cyclopropyl-2-[3-fluoro-6-(4-methyl-2-thienyl)pyrrolo[3,2-b]pyridin-1-yl]ethanone], the IC50 is 39.8 nM.

As to `O=C(Cn1cc(F)c2ncc(-c3ccc(Cl)s3)cc21)C1CC1` [Example 318, 2-[6-(5-Chloro-2-thienyl)-3-fluoro-pyrrolo[3,2-b]pyridin-1-yl]-1-cyclopropyl-ethanone], the 50% inhibitory concentration (IC50) was 20 nM.

For the compound `O=C(Cn1cc(F)c2ncc(-c3ccc(F)cc3)cc21)C1CC1` [Example 319, 1-Cyclopropyl-2-[3-fluoro-6-(4-fluorophenyl)pyrrolo[3,2-b]pyridin-1-yl]ethanone], the IC50 is 20 nM.

As to `O=C(Cn1cc(F)c2ncc(-c3cc(F)c(F)c(F)c3)cc21)C1CC1` [Example 320, 1-Cyclopropyl-2-[3-fluoro-6-(3,4,5-trifluorophenyl)pyrrolo[3,2-b]pyridin-1-yl]ethanone], the IC50 is 31.6 nM.

Consider `O=C(Cn1cc(F)c2ncc(-c3cccc(C(F)F)c3)cc21)C1CC1` [Example 321, 1-Cyclopropyl-2-[6-[3-(difluoromethyl)phenyl]-3-fluoro-pyrrolo[3,2-b]pyridin-1-yl]ethanone], for which the IC50 was 20 nM.

As to `Cc1csc(-c2cnc3c(F)cn(CC(=O)N4CCC4)c3c2)c1` [Example 322, 1-(Azetidin-1-yl)-2-[3-fluoro-6-(4-methyl-2-thienyl)pyrrolo[3,2-b]pyridin-1-yl]ethanone], the IC50 was 20 nM.

Turning to `O=C(Cn1cc(F)c2ncc(-c3cccc(C(F)F)c3)cc21)N1CCC1` [Example 323, 1-(Azetidin-1-yl)-2-[6-[3-(difluoromethyl)phenyl]-3-fluoro-pyrrolo[3,2-b]pyridin-1-yl]ethanone], the IC50 is 100 nM.

`Cc1cc(-c2cnc3c(F)cn(CC(=O)C(C)C)c3c2)ccc1F` [Example 324, 1-[3-Fluoro-6-(4-fluoro-3-methyl-phenyl)pyrrolo[3,2-b]pyridin-1-yl]-3-methyl-butan-2-one]: the IC50 is 100 nM.

`CCc1cccc(-c2cnc3c(F)cn(CC(=O)C(C)C)c3c2)c1` [Example 325, 1-[6-(3-Ethylphenyl)-3-fluoro-pyrrolo[3,2-b]pyridin-1-yl]-3-methyl-butan-2-one]: the IC50 was 200 nM.

Consider `CC(C)C(=O)Cn1cc(F)c2ncc(-c3ccc(F)c(F)c3)cc21` [Example 326, 1-[6-(3,4-Difluorophenyl)-3-fluoro-pyrrolo[3,2-b]pyridin-1-yl]-3-methyl-butan-2-one], for which the IC50 was 200 nM.

For the compound `CC(C)C(=O)Cn1cc(F)c2ncc(-c3cccc(F)c3)cc21` [Example 327, 1-[3-Fluoro-6-(3-fluorophenyl)pyrrolo[3,2-b]pyridin-1-yl]-3-methyl-butan-2-one], the half-maximal inhibitory concentration (IC50) is 63.1 nM.

As for `CC(C)C(=O)Cn1cc(F)c2ncc(-c3cccc(C(F)(F)F)c3)cc21` [Example 328, 1-[3-Fluoro-6-[3-(trifluoromethyl)phenyl]pyrrolo[3,2-b]pyridin-1-yl]-3-methyl-butan-2-one], the IC50 is 63.1 nM.

`Cc1cccc(-c2cnc3c(F)cn(CC(=O)C(C)C)c3c2)c1` [Example 329, 1-[3-Fluoro-6-(m-tolyl)pyrrolo[3,2-b]pyridin-1-yl]-3-methyl-butan-2-one]: the half-maximal inhibitory concentration (IC50) was 501 nM.

Consider `CSCn1ccc2ncc(-c3ccc(F)c(C)c3)cc21` [Example 330, 6-(4-Fluoro-3-methyl-phenyl)-1-(methylsulfanylmethyl)pyrrolo[3,2-b]pyridine], for which the IC50 is 63.1 nM.

Regarding `Cc1cc(-c2cnc3ccn(CS(C)(=O)=O)c3c2)ccc1F` [Example 332, 6-(4-Fluoro-3-methyl-phenyl)-1-(methylsulfonylmethyl)pyrrolo[3,2-b]pyridine], the IC50 is 1580 nM.

In the case of `CCC(=O)Cn1cc(F)c2ncc(-c3ccc(F)cc3)cc21` [Example 333, 1-[3-Fluoro-6-(4-fluorophenyl)pyrrolo[3,2-b]pyridin-1-yl]butan-2-one], the half-inhibitory concentration (IC50) was 6310 nM.

On to `CCC(=O)Cn1cc(F)c2ncc(-c3cc(F)c(F)c(F)c3)cc21` [Example 334, 1-[3-Fluoro-6-(3,4,5-trifluorophenyl)pyrrolo[3,2-b]pyridin-1-yl]butan-2-one], for which the IC50 is 25.1 nM.

With `CCC(=O)Cn1cc(F)c2ncc(-c3ccc(F)c(C)c3)cc21` [Example 335, 1-[3-Fluoro-6-(4-fluoro-3-methyl-phenyl)pyrrolo[3,2-b]pyridin-1-yl]butan-2-one], the IC50 was 12.6 nM.

With `CCC(=O)Cn1cc(F)c2ncc(-c3ccc(F)c(F)c3)cc21` [Example 336, 1-[6-(3,4-Difluorophenyl)-3-fluoro-pyrrolo[3,2-b]pyridin-1-yl]butan-2-one], the IC50 is 20 nM.

For the compound `CCC(=O)Cn1cc(F)c2ncc(-c3cccc(C(F)F)c3)cc21` [Example 337, 1-[6-[3-(Difluoromethyl)phenyl]-3-fluoro-pyrrolo[3,2-b]pyridin-1-yl]butan-2-one], the IC50 is 15.8 nM.

For `CCC(=O)Cn1cc(F)c2ncc(-c3ccc(Cl)s3)cc21` [Example 338, 1-[6-(5-Chloro-2-thienyl)-3-fluoro-pyrrolo[3,2-b]pyridin-1-yl]butan-2-one], the IC50 was 15.8 nM.

As to `CCC(=O)Cn1cc(F)c2ncc(-c3cc(C)cs3)cc21` [Example 339, 1-[3-Fluoro-6-(4-methyl-2-thienyl)pyrrolo[3,2-b]pyridin-1-yl]butan-2-one], the IC50 was 12.6 nM.

By pIC50 is commonly meant the IC50 on a negative log10 scale, so that one unit is a factor of ten. Consider `CC(=O)CCn1ccc2ncc(-c3ccc(F)cc3)cc21` [Example 340, 4-[6-(4-Fluorophenyl)pyrrolo[3,2-b]pyridin-1-yl]butan-2-one], for which the pIC50 came out at 7.9.

As for `CC(C)C(=O)Cn1cc(F)c2ncc(-c3ccc(F)cc3)cc21` [Example 341, 1-[3-Fluoro-6-(4-fluorophenyl)pyrrolo[3,2-b]pyridin-1-yl]-3-methyl-butan-2-one], the 50% inhibitory concentration (IC50) was 1000 nM.

In the case of `CC(C)C(=O)Cn1cc(F)c2ncc(-c3cccc(C(F)F)c3)cc21` [Example 342, 1-[6-[3-(Difluoromethyl)phenyl]-3-fluoro-pyrrolo[3,2-b]pyridin-1-yl]-3-methyl-butan-2-one], the IC50 was 50.1 nM.

For the compound `Cc1csc(-c2cnc3c(F)cn(CC(=O)C(C)C)c3c2)c1` [Example 343, 1-[3-Fluoro-6-(4-methyl-2-thienyl)pyrrolo[3,2-b]pyridin-1-yl]-3-methyl-butan-2-one], the IC50 is 63.1 nM.

Take `CC(C)C(=O)Cn1cc(F)c2ncc(-c3cc(F)c(F)c(F)c3)cc21` [Example 344, 1-[3-Fluoro-6-(3,4,5-trifluorophenyl)pyrrolo[3,2-b]pyridin-1-yl]-3-methyl-butan-2-one]: the IC50 is 50.1 nM.

As for `CC(C)C(=O)Cn1cc(F)c2ncc(-c3ccc(Cl)s3)cc21` [Example 345, 1-[6-(5-Chloro-2-thienyl)-3-fluoro-pyrrolo[3,2-b]pyridin-1-yl]-3-methyl-butan-2-one], the IC50 is 31.6 nM.

As for `Cc1cc(-c2cnc3ccn(CC(=O)N4CCOCC4)c3c2)ccc1F` [Example 346, 2-[6-(4-Fluoro-3-methyl-phenyl)pyrrolo[3,2-b]pyridin-1-yl]-1-morpholino-ethanone], the IC50 is 39.8 nM.

As to `Cc1cc(-c2cnc3ccn(CC(=O)NC4CC4)c3c2)ccc1F` [Example 348, N-Cyclopropyl-2-[6-(4-fluoro-3-methyl-phenyl)pyrrolo[3,2-b]pyridin-1-yl]acetamide], the IC50 was 31.6 nM.

For `O=C(Cn1ccc2ncc(-c3cc(F)cc(F)c3)cc21)NC1CC1` [Example 350, N-Cyclopropyl-2-[6-(3,5-difluorophenyl)pyrrolo[3,2-b]pyridin-1-yl]acetamide trifluoroacetate salt], the IC50 was 15.8 nM.

As for `O=C(Cn1ccc2ncc(-c3cccc(C(F)(F)F)c3F)cc21)NC1CC1` [Example 352, N-Cyclopropyl-2-[6-[2-fluoro-3-(trifluoromethyl)phenyl]pyrrolo[3,2-b]pyridin-1-yl]acetamide trifluoroacetate salt], the IC50 was 39.8 nM.

For the compound `O=C(Cn1ccc2ncc(-c3ccc(F)cc3)cc21)N1CCC1` [Example 353, 1-(Azetidin-1-yl)-2-[6-(4-fluorophenyl)pyrrolo[3,2-b]pyridin-1-yl]ethanone], the IC50 is 31.6 nM.

As for `O=C(Cn1ccc2ncc(-c3ccccc3)cc21)N1CCC1` [Example 354, 1-(Azetidin-1-yl)-2-(6-phenylpyrrolo[3,2-b]pyridin-1-yl)ethanone], the concentration for half-maximal inhibition (IC50) was 31.6 nM.

On to `O=C(Cn1ccc2ncc(-c3cc(F)cc(F)c3)cc21)N1CCC1` [Example 355, 1-(Azetidin-1-yl)-2-[6-(3,5-difluorophenyl)pyrrolo[3,2-b]pyridin-1-yl]ethanone], for which the half-maximal inhibitory concentration (IC50) was 50.1 nM.
